# Data reported in US10690672B2, “Methods for breast cancer treatment” (GEORGE MASON UNIVERSITY, priority 2015, dated 2020).
# Experiments:
# breast cancer [1] = assay: I-SPY 2 TRIAL: pathological complete response (pCR) to neratinib plus standard chemotherapy vs concurrent control
# Protocol: Subjects providing samples (pre-treatment biopsies) for studies described herein were characterized based on measurement of estrogen/hormone receptor (HR) and HER2 (c-erbB2), and were described by HER2−/HR−. HER2+/HR+. HER2+/HR−, HER2−/HR+ phenotypes. Response to treatment was determined by the amount of tumor shrinkage and a lack of appreciable tumor evident at surgery. A response of tumor shrinkage and/or lack of tumor when examined (such as at surgery) is referred to herein as “complete pathological response” (pCR), and has recently been deemed by the US FDA as an appropriate clinical endpoint for therapeutic approval. Neratinib is a therapeutic agent with a mechanism of action that is as a tyrosine kinase inhibitor that binds to and inhibits c-erbB2 and EGFR protein activity and the respective linked downstream pathways. […] Methods described herein may comprise obtaining measurements of the amounts proteins from a subject sample using a protein array technology developed by the inventors, and is referred to herein as “reverse phase protein microarray” (RPPA). This microarray allows for quantitative measurement of the amount of proteins and/or phosphorylated proteins in the tumor or cancerous cells from pretreatment sample, for example from biopsy specimens of women with Stage II/III breast cancer.
# This example tested the hypothesis that the response to the pan-ERBB inhibitor, neratinib, was predicted by pre-treatment HER2-EGFR signaling. […] All patients received at least standard chemotherapy (which was comprised of 12 weekly cycles of paclitaxel (a taxane) therapy followed by 4 cycles of doxorubicin/cyclophosphamide (AC) therapy). For HER2+ patients, neratinib was administered in place of trastuzumab, and all HER2+ control arm patients received chemotherapy plus trastuzumab. 18 HER family signaling proteins were evaluated as biomarkers of neratinib response using reverse phase protein microarray (RPMA) data from pre-treatment laser capture microdissection (LCM) purified tumor epithelium.
# Eighteen (18) protein/phosphoproteins biomarkers relating to HER family signaling were evaluated: AKT S473, AKT T308, EGFR, EGFR Y1068, EGFR Y1148, EGFR Y1173, EGFR Y992, ERBB2, ERBB2 Y1248, ERBB3 total, ERBB3 Y1289, ERK1/2 T202/Y204, Heregulin, mTOR, mTOR S2448, PI3K p85 Y458/p55 Y199, PTEN S380, and SHC Y317. This study assessed association between biomarker and response in the neratinib and control arms alone (likelihood ratio test), and relative performance between arms (biomarker×treatment interaction) using a logistic model. Analysis was also performed adjusting for HR/HER2 status.
# breast cancer [2] = assay: Bayesian analysis (MCMC simulation on I-SPY 2 data): probability of superiority to control and of Phase III success; assay type: in vivo, human
# Text: Bayesian analysis was completed using the MCMC simulation based on I-SPY 2 data with the following model: pCR˜HR+HER2+biomarker+treatment+treatment*HR+treatment*HER2+treatment*biomarker. No multiple comparison adjustments were applied. The Bayesian analytical engine developed by Don Berry (Yee et al J Clin Oncol. 2012 Dec. 20; 30(36):4584-6), is a mathematical approach that evaluates the clinical performance of a drug (in this case, neratinib) in both the treatment arm (in this case tumor shrinkage estimates by size changes observed by MRI), coupled with complete pathological response (pCR) as measured as the final response determinant, and the response of the predicate therapy in the control arm. This evaluation determined success of a given therapy for a Phase III trial, and in this case, it was determined that phosphorylation of EGFR at Y1173 was not only statistically significant at predicting or assessing response to neratinib in all patients regardless of hormone receptor levels and HER2 levels (HER2+, HER2− and HR+ and HR−), but when patients with high levels of phosphorylated EGFR (Y1173) were added to the HR−/HER2+ subgroup, the prevalence of ‘biomarker-positive’ patients increased by 50%, while increasing the predicted probability of Phase III success to 90%. Moreover, when EGFR Y1173 was used as a single marker, a statistically significant increase in Phase III success was determined for all patients compared to HER2+/HR− status as measured by immunohistochemical methods. (93% vs 87%).
smiles,measurement,setting,value
CCOc1cc2ncc(C#N)c(Nc3ccc(OCc4ccccn4)c(Cl)c3)c2cc1NC(=O)/C=C/CN(C)C [Neratinib],OR associated with treatment (pCR),breast cancer [1]; EGFR Y1173 High patients added to the graduating HR−/HER2+ subset,3.2
same,odds ratio (OR) of pCR between EGFR Y1173 groups in the N relative to control arm,"breast cancer [1]; EGFR Y1173 High vs Low, neratinib arm relative to control arm",10.1
same,clinical response,breast cancer [1]; HER2+/HR− subtype,statistically significant clinical response
same,pCR rate,"breast cancer [1]; HR−/HER2+ patients, EGFR Y1173 High, neratinib arm",12/18 (67%)
same,pCR rate,"breast cancer [1]; HR−/HER2+ patients, EGFR Y1173 Low, neratinib arm (neratinib in place of trastuzumab + paclitaxel then AC)",0/4 (0%)
same,OR associated with treatment (pCR),breast cancer [1]; HR−/HER2+ signature,2.1
same,trial outcome (graduation),"breast cancer [1]; I-SPY 2 TRIAL, HR−/HER2+ signature",graduated
same,pCR rate,"breast cancer [1]; Not HR−/HER2+ patients, EGFR Y1173 High, neratinib arm",24/57 (42%)
same,pCR rate,"breast cancer [1]; Not HR−/HER2+ patients, EGFR Y1173 Low, neratinib arm",3/27 (11%)
same,pCR by subtype,breast cancer [1]; regardless of HER2/HR status,pCR was observed in every subtype
same,Prob > CTRL (probability of Neratinib superiority to control),breast cancer [2]; EGFR Y1173 High,0.99
same,Prob Ph III Success,breast cancer [2]; EGFR Y1173 High,0.93
same,probability of Phase III success,"breast cancer [2]; EGFR Y1173 used as a single marker, all patients",93%
same,probability of Phase III success,breast cancer [2]; HER2+/HR− status by immunohistochemical methods,87%
same,Prob > CTRL (probability of Neratinib superiority to control),breast cancer [2]; HR−/HER2+,0.97
same,Prob Ph III Success,breast cancer [2]; HR−/HER2+,0.87
same,Prob > CTRL (probability of Neratinib superiority to control),breast cancer [2]; HR−/HER2+ AND EGFR Y1173 High,0.99
same,Prob Ph III Success,breast cancer [2]; HR−/HER2+ AND EGFR Y1173 High,0.95
same,Prob > CTRL (probability of Neratinib superiority to control),breast cancer [2]; HR−/HER2+ OR EGFR Y1173 High,0.99
same,Prob Ph III Success,breast cancer [2]; HR−/HER2+ OR EGFR Y1173 High,0.9
same,predicted probability of Phase III success,breast cancer [2]; patients with high phosphorylated EGFR (Y1173) added to the HR−/HER2+ subgroup,90%
